{
  "source": "patent US10226044B2",
  "about": "“Agricultural and horticultural composition and method for cultivating plant” (AJINOMOTO CO., INC., priority 2014, dated 2019)",
  "key": {"[1]": {"test_system": "cherry tomato (Suncherry Pure)", "assay_type": "in vivo", "conditions": "10 mM sprinkled once a week", "description": "Three seeds of cherry tomato (Suncherry Pure, Tokita Seed) were shown in compost contained in a slit pot, and cultivated in the same manner as described in Example 1, provided that the cultivation was performed in a greenhouse as in Example 2. The compost and application of fertilizer were the same or performed in the same manner as those described in Example 1. One month after the sowing, each seedling was permanently planted in a 9.0-cm long pot (top diameter 9 cm, height 20 cm, bottom diameter 6.4 cm), and cultivated until harvest. As for application of fertilizer, a 200-fold diluted solution of Vegetable Life A (Otsuka Chemical) was additionally applied as a fertilizer by irrigation in a volume of 100 mL per one root clump (pot) every two days from one month after the sowing to the harvest. After the plants of four root clumps uniformly grew, and flower buds began to appear, water (Con.), 10 mM L-isoleucine aqueous solution (Ile), or 10 mM proline aqueous solution (Pro) was sprinkled on the whole plants once a week. The sprinkled volume was adjusted in accordance with the growth of the plants, and it was 15 to 30 mL per one root clump. Then, ripening of fruit, number of fruit, amino acid content of fruit juice, sugar content and acidity of fruit juice, and antioxidant capacity of fruit juice were investigated for each root clump."}, "[2]": {"test_system": "cherry tomato (Suncherry Pure)", "assay": "Sugar content and acidity analysis of tomato fruit juice", "assay_type": "in vivo", "conditions": "10 mM sprinkled once a week", "description": "After the plants of four root clumps uniformly grew, and flower buds began to appear, water (Con.), 10 mM L-isoleucine aqueous solution (Ile), or 10 mM proline aqueous solution (Pro) was sprinkled on the whole plants once a week. The sprinkled volume was adjusted in accordance with the growth of the plants, and it was 15 to 30 mL per one root clump.\nMature tomato fruit were taken from cherry tomato plants of each experimental group in the same manner as described in iii) above, and fruit juice was pressed out from each fruit. Glucose content, fructose content, and acidity of each fruit juice extract were analyzed. Analysis of glucose and fructose was performed for a 20-fold diluted solution of fruit juice by using a food analysis reagent kit, F-Kit (Saccharose (Sucrose)/D-Glucose/D-Fructose Kit (Roche)) and DU800 Spectrophotometer (Beckman Coulter) according to the manuals of the kit and instrument. Acidity analysis was performed by using a pocket acidity meter (PAL-AC1, ATAGO)."}, "[3]": {"test_system": "LOX, JAR1, PI and MYC2 genes", "assay": "Real-time PCR of jasmonic acid synthesis and response genes in leaves after foliar application", "assay_type": "in vivo, cherry tomato (Suncherry Pure)", "conditions": "10 mM Ile, 3 hours after foliar application", "description": "Three hours after the foliar application, leaves of the same part were collected, and RNA was isolated by using SV Total RNA Isolation System™ (Promega) according to the manual of the kit. […] Expression of the 13-lipoxygenase (LOX) gene locating in the upstream of the jasmonic acid biosynthesis pathway, and the gene for synthesis of JA-Ile from JA and Ile (JASMONATE RESISTANT 1 (JAR1)) were analyzed. The expression amounts of the genes are represented as relative expression amounts with respect to that of the actin gene. The results of real-time PCR analysis of the jasmonic acid responding genes, protease inhibitor (PI) and MYC2 genes, performed by using the aforementioned cDNAs as the template are shown in FIG. 13. By the sprinkling of Ile, expression of the PI and MYC2 genes were increased."}, "[4]": {"test_system": "VR callus derived from European grape", "assay": "Anthocyanin content of grape calluses treated with amino acids", "assay_type": "cell-based, Vitis vinifera L.", "description": "A cell line (VR, management number RPC00003) derived from European grape (Vitis vinifera L.) and stored in the Institute of Physical and Chemical Research, BioResource Center was subcultured on the MS agar medium. The subcultured VR callus was transferred to the MS agar medium containing a 5 mM solution of a different amino acid, and cultured. For the positive control, abscisic acid (ABA), for which coloring-promoting effect is known, was used at 100 μM (Jeong et al., Plant Science, 167:247-252, 2004). On the 5th day after the transfer, the callus was lyophilized and ground, and anthocyanin was extracted from it by using a 1% HCl/MeOH solution. Absorbance of the extract was measured at 530 nm, and the content of anthocyanin was measured by using cyanidine 3-glucoside as a standard substance.\n(2) In the same manner as described above, anthocyanin content of grape calluses treated with isoleucine and proline, respectively, were measured."}, "[5]": {"conditions": "relative to actin, compared to water (Con.)"}},
  "data": [
    {"smiles": "CC[C@H](C)[C@H](N)C(=O)O", "note": "[Ile, L-isoleucine]", "values": [
      {"measurement": "final crop yield: number of fruit produced, larger as compared to water (Con.)", "setting": "[1]", "result": 16, "unit": "%"},
      {"measurement": "number of tomatoes that had changed color", "setting": "[1]", "result": "larger in the order of the tomato plants sprinkled with Ile, Pro, and water (Con.)"},
      {"measurement": "glucose content and fructose content of the fruit, comparison of groups", "setting": "[2]", "result": "almost the same as those of the control"},
      {"measurement": "Acidity", "setting": "[2]; fruit juice of mature fruit", "result": 0.46, "unit": "%"},
      {"measurement": "Fructose", "setting": "[2]; fruit juice of mature fruit", "result": 13.3, "unit": "g/L"},
      {"measurement": "Glucose", "setting": "[2]; fruit juice of mature fruit", "result": 13.3, "unit": "g/L"},
      {"measurement": "expression of the MYC2 gene", "setting": "[3]", "result": "increased"},
      {"measurement": "expression of the PI gene", "setting": "[3]", "result": "increased"},
      {"measurement": "Expression of the JAR1 gene in leaves", "setting": "[3]; [5]", "result": "significantly higher"},
      {"measurement": "Expression of the LOX gene in leaves", "setting": "[3]; [5]", "result": "significantly higher"},
      {"measurement": "anthocyanin content of callus, comparison of amino acids", "setting": "[4]; 5 mM, 5th day", "result": "highest"},
      {"measurement": "change in color of the grape callus (anthocyanin content)", "setting": "[4]; Ile of 1 mM or higher, Pro compared with Ile", "result": "promoted"}
    ]}
  ]
}
